In the supplement of paper PMC10307832:

Tests used:
Assay in all cases: relative viability (nuclei count vs DMSO), 5 days (fraction); higher = more cells survive
[1] = compound: CN(C)CC1=CC(=CC=C1)N=C(C2=CC=CC=C2)C3=C(NC4=C3C=CC(=C4)C(=O)N(C)C)O + CC(=O)c1c(C)c2cnc(Nc3ccc(N4CCNCC4)cn3)nc2n(C2CCCC2)c1=O [Palbociclib] (partner 0.5 µM)
Method in brief: (§1)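 The day after seeding in 1536-well plates, lung cancer cell lines were treated by pin tool with a single drug, or with a fixed anchor-drug dose together with five library-drug doses (not always all listed) in √10 steps. After 5 days, a combined fix-and-stain solution (final 0.05% Triton X-100, 1% formaldehyde, 1 ug/ml Hoechst) was added. Nuclei counted on 4× images gave relative viability as treated counts over vehicle counts, reported as the median of duplicate plates.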

[2] = compound: CN(C)CC1=CC(=CC=C1)N=C(C2=CC=CC=C2)C3=C(NC4=C3C=CC(=C4)C(=O)N(C)C)O + CS(=O)(=O)N1CCN(Cc2cc3nc(-c4cccc5[nH]ncc45)nc(N4CCOCC4)c3s2)CC1 [Pictilisib] (partner 1 µM)
Method in brief: as §1

[3] = compound: CN(C)CC1=CC(=CC=C1)N=C(C2=CC=CC=C2)C3=C(NC4=C3C=CC(=C4)C(=O)N(C)C)O + N=C(N)NC(=N)NCCc1ccccc1 [Phenformin] (partner 250 µM)
Method in brief: as §1

[4] = compound: CN(C)CC1=CC(=CC=C1)N=C(C2=CC=CC=C2)C3=C(NC4=C3C=CC(=C4)C(=O)N(C)C)O + Nc1ncn([C@H]2C[C@H](O)[C@@H](CO)O2)c(=O)n1 [Decitabine] (partner 2 µM)
Method in brief: as §1

| Cell Line | relative viability ([1]; first compound 0.08 µM) | relative viability ([1]; first compound 0.253 µM) | relative viability ([1]; first compound 0.8 µM) | relative viability ([1]; first compound 2.53 µM) | relative viability ([1]; first compound 8 µM) | relative viability ([2]; first compound 0.08 µM) | relative viability ([2]; first compound 0.253 µM) | relative viability ([2]; first compound 0.8 µM) | relative viability ([2]; first compound 2.53 µM) | relative viability ([2]; first compound 8 µM) | relative viability ([3]; first compound 0.08 µM) | relative viability ([3]; first compound 0.253 µM) | relative viability ([3]; first compound 0.8 µM) | relative viability ([3]; first compound 2.53 µM) | relative viability ([3]; first compound 8 µM) | relative viability ([4]; first compound 0.08 µM) | relative viability ([4]; first compound 0.253 µM) | relative viability ([4]; first compound 0.8 µM) | relative viability ([4]; first compound 2.53 µM) | relative viability ([4]; first compound 8 µM) |
| --- | --- | --- | --- | --- | --- | --- | --- | --- | --- | --- | --- | --- | --- | --- | --- | --- | --- | --- | --- | --- |
| LOU-NH91 | 0.57 | 0.53 | 0.524 | 0.52 | 0.598 | 0.532 | 0.512 | 0.481 | 0.511 | 0.512 | 0.697 | 0.652 | 0.548 | 0.714 | 0.699 | 0.781 | 0.822 | 0.757 | 0.803 | 0.818 |
| NCI-H520 | 0.234 | 0.2 | 0.214 | 0.195 | 0.173 | 0.271 | 0.294 | 0.316 | 0.215 | 0.221 | 0.477 | 0.564 | 0.508 | 0.429 | 0.347 | 0.489 | 0.528 | 0.481 | 0.5 | 0.511 |
| UMC-11 | 0.351 | 0.311 | 0.326 | 0.306 | 0.291 | 0.971 | 0.82 | 0.771 | 0.776 | 0.638 | 0.332 | 0.311 | 0.309 | 0.301 | 0.253 | 0.724 | 0.633 | 0.693 | 0.546 | 0.611 |
| BEN | 0.49 | 0.485 | 0.492 | 0.467 | 0.454 | 0.664 | 0.587 | 0.584 | 0.55 | 0.509 | 0.233 | 0.274 | 0.238 | 0.223 | 0.267 | 0.674 | 0.913 | 0.787 | 0.69 | 0.771 |
| LCLC-97TM1 | 0.199 | 0.224 | 0.258 | 0.254 | 0.299 | 0.174 | 0.218 | 0.157 | 0.224 | 0.305 | 0.466 | 0.408 | 0.475 | 0.438 | 0.422 | 0.271 | 0.261 | 0.225 | 0.219 | 0.205 |
| NCI-H1666 | 0.617 | 0.652 | 0.684 | 0.681 | 0.73 | 0.507 | 0.528 | 0.4 | 0.486 | 0.545 | 0.569 | 0.579 | 0.615 | 0.58 | 0.585 | 0.694 | 0.715 | 0.68 | 0.769 | 0.744 |
| SW 1573 | 0.323 | 0.42 | 0.367 | 0.34 | 0.317 | 0.474 | 0.512 | 0.523 | 0.385 | 0.456 | 0.322 | 0.31 | 0.378 | 0.294 | 0.31 | 0.496 | 0.46 | 0.659 | 0.562 | 0.573 |
| NCI-H1993 | 0.63 | 0.615 | – | 0.75 | 0.592 | 0.826 | 0.86 | 0.98 | 0.799 | 0.768 | 0.504 | 0.498 | 0.586 | 0.507 | 0.493 | 0.643 | 0.55 | – | 0.617 | 0.687 |
| NCI-H650 | 0.319 | 0.371 | 0.387 | 0.355 | 0.364 | 1 | 0.789 | 0.955 | 0.768 | 0.766 | 0.49 | 0.495 | 0.459 | 0.43 | 0.433 | 0.364 | 0.408 | 0.335 | 0.33 | 0.371 |
| LCLC-103H | 0.255 | 0.425 | 0.558 | 0.449 | 0.458 | 0.595 | 0.671 | 0.616 | 0.586 | 0.593 | 0.347 | 0.368 | 0.304 | 0.337 | 0.291 | 0.785 | 0.725 | 0.723 | 0.739 | 0.641 |
| NCI-H2085 | 0.452 | 0.492 | 0.476 | 0.5 | 0.559 | 0.386 | 0.479 | 0.414 | 0.448 | 0.493 | 0.747 | 0.711 | 0.635 | 0.784 | 0.638 | 0.521 | 0.571 | 0.622 | 0.547 | 0.646 |
| NCI-H23 | – | 0.655 | 0.556 | 0.579 | 0.478 | 0.45 | 0.42 | 0.565 | 0.512 | 0.475 | 0.796 | 0.781 | 0.787 | 0.764 | 0.691 | – | 0.332 | 0.303 | 0.343 | 0.346 |
| NCI-H1355 | 0.425 | 0.399 | 0.305 | 0.4 | 0.4 | 0.495 | 0.507 | 0.329 | 0.402 | 0.341 | 0.483 | 0.463 | 0.421 | 0.421 | 0.392 | 0.376 | 0.359 | 0.331 | 0.342 | 0.365 |
| NCI-H1651 | 0.526 | 0.505 | 0.554 | 0.521 | 0.494 | 0.685 | 0.647 | 0.636 | 0.474 | 0.608 | 0.346 | 0.343 | 0.349 | 0.292 | 0.329 | 0.665 | 0.622 | 0.616 | 0.423 | 0.643 |
| HCC-78 | 0.504 | 0.516 | 0.501 | 0.403 | 0.52 | 0.197 | 0.24 | 0.24 | 0.206 | 0.224 | 0.642 | 0.812 | 0.675 | 0.698 | 0.738 | 0.564 | 0.716 | 0.766 | 0.681 | 0.665 |
